Results: US9518988B2, “Antibodies and methods of using same for treating ErbB/ErbB ligands associated diseases” (Yeda Research and Development Co. Ltd., priority 2010, dated 2016)

Key:
[1] = test system: BxPC3 pancreatic tumor cells; test: Cell proliferation assay (MTT), BxPC3; assay type: cell-based, human; details: gemcitabine 50 mg/ml
Protocol: (§1) FIGS. 4A-B depict effective inhibition of proliferation and tumorigenicity (in vitro and in vivo) of human pancreatic cancer cells by a combination of anti-TGFα and anti-HB-EGF mAbs. […] BxPC3 cells (2×10^4) were seeded in a 96-well plate and allowed to adhere overnight, prior to the addition of anti-TGFα or anti-HB-EGF mAbs (each at 30 μg/ml), or a mixture of both mAbs (each at 15 μg/ml). Cell proliferation was determined in hexaplicates after 96 hours using the MTT method. Averages±S.D. are shown. The experiment was repeated twice. […] Female nude mice (6 week old) were inoculated subcutaneously with 2×10^6 BxPC3 cells. […]
(§2) FIGS. 5A-B depict effective inhibition of human pancreatic cancer cell growth (in vitro and in vivo) by a combination of two mAbs and chemotherapy. […] Of note, body weight monitoring detected no consistent trends and differences other than a slow gain of weight (data not shown).
BxPC3 pancreatic tumor cells were plated on 96-well plates (2,000 cells/well), in hexaplicates. […] Proliferation was measured after 24, 48 and 72 hours using the MTT method as was previously described [Mossmann T. J., Immunol Methods. […] Absorbance was determined at 570 nm.
BxPC3 pancreatic tumor cells were plated on 96-well plates (2,000 cells/well), in hexaplicates. […] Proliferation was measured after 24, 48 and 72 hours using the MTT method. […] Absorbance was determined at 570 nm.

BxPC3 xenografts = test: Anti-tumor activity in nude mice, BxPC3 xenografts; assay type: in vivo; details: two intraperitoneal injections (days 16 and 21), 150 mg/kg body weight
Protocol: as §1, §2
(§3) Female atymic NCr-nude mice (6 week old; Harlen, Israel) were inoculated subcutaneously with 2×10^6 human cancer cells. […] Tumor volumes were monitored twice a week, and body weights were measured once a week.
as §3

[2] = test system: EGFR phosphorylation on tyrosine residues; test: Biological activity of purified recombinant ligands: EGFR phosphorylation on tyrosine residues; assay type: cell-based; details: TRX-TGFα 2, 20, 200 ng/ml; TRX-HB-EGF 3, 30, 300 ng/ml; 10 minute incubation
Protocol: FIGS. 1A-E depict construction, expression and biological activity of recombinant EGF-like ligands and detection of TGFα blocking antibodies using a GPI-anchored TGFα. […] Residue numbers are indicated. […] Molecular weight markers are indicated in kilodaltons. […] Cells were seeded in a 24-well plate, washed and incubated with increasing concentrations of the purified fusion proteins (TRX-TGFα: 2, 20, 200 ng/ml; TRX-HB-EGF: 3, 30, 300 ng/ml). EGF (10 ng/ml) was used as a positive control. After 10 minute incubation, the cells were lysed, and cleared extracts were immunoblotted (IB) with an anti-phosphotyrosine (P-Tyr) antibody. […] Residue numbers refer to TGFα. Cysteine residues of the EGF-like domain are highlighted. […] Cells were seeded in a 24-well plate, washed and incubated with or without TGFα (5 ng/ml), and with increasing volumes of an anti-serum from TGFα-immunized mice (0.2, 2, 4, 6, 8 and 10 μl of serum diluted in 120 μl total; control: 10 μl serum from a naive animal). An anti-phosphotyrosine mAb was used to detect phosphorylated EGFR.
Cells were seeded in a 24-well plate. Twenty-four hours later, cells were washed and incubated with different agents. After ten minutes of incubation, the cells were lysed and cleared extracts were electrophoresed, then immunoblotted with an anti-phosphotyrosine mAb, an anti-EGFR mAb (HeLa) or with an anti-ErbB-3 mAb (T47D).

Question: With `Nc1ccn([C@@H]2O[C@H](CO)[C@@H](O)C2(F)F)c(=O)n1` [gemcitabine] as the molecule, how does the “growth inhibition of cultured BxPC3 cells (MTT), gemcitabine alone” value [1] read?
Answer: Its value is “growth inhibitory effect”.

Question: And the “inhibition of tumor growth, BxPC3 xenografts” value (BxPC3 xenografts)?
Answer: Its value is “more than 85%”.

Question: Which “ability to induce EGFR phosphorylation on tyrosine residues” value [2] does the source give for “TGFα: EGF-like domain of TGFα expressed in bacteria as thioredoxin (TRX) fusion protein, used as immunogen” here?
Answer: The value was “functionally active conformation”.

B1: HB-EGF: EGF-like domain of HB-EGF expressed in bacteria as thioredoxin (TRX) fusion protein, used as immunogen (protein)
chain: DLQEADLDLLRVTLSSKPQALATPNKEEHGKRKKKGKGLGKKRDPCLRKYKDFCIHGECKYVKELRAPSCICHPGYHGERCHGLSL
Question: Which “ability to induce EGFR phosphorylation on tyrosine residues” value [2] does the source give for B1 here?
Answer: The value was “functionally active conformation”.
